This is an account of results in patent US20220296623A1, “REDUCED NICOTINAMIDERIBOSIDES FOR TREATING OR PREVENTING KIDNEY DISEASE” (SOCIETE DES PRODUITS NESTLE S.A., priority 2019, published 2022).

Experiment [1] deals with NAD+ levels in liver, muscle and kidney. The experiment in a line: Tissue NAD+ levels after intraperitoneal injection of NR or NRH. Conditions: IP 500 mg/kg, after 1 h. The experiment is classed as in vivo, mice. As for the experimental part: The above results prompted us to test whether NRH could act as an effective NAD+ precursor in vivo. For this, we first intraperitoneally (IP) injected mice with either NR or NRH (500 mg/kg).

Experiment [2] has as its system cisplatin-induced acute kidney injury. The class given is in vivo, C57BI/6NTac mice. As for the experimental part: Simultaneously, mice were intraperitoneally injected with PBS (as vehicle) or NRH (250 mg/kg). PBS or NRH was injected at 24, 48 and 72 h after the initiation of the experiment. Kidneys of the mice were harvested, 4 h after the last injection, and NAD+ levels were analyzed in the kidney through mass spectrometry. All results are expressed as mean +/−SEM of n=5 mice per group. * indicates statistical difference at p<0.05 vs. vs. respective saline-treated mice
FIG. 7. […] Simultaneously, mice were intraperitoneally injected or not with PBS (as vehicle) or NRH (250 mg/kg) at 24, 48 and 72 h after the initiation of the experiment. Mice were sacrificed 4 h after the last injection, and plasma was collected to measure blood urea nitrogen levels. All results are expressed as mean +/−SEM of n=5 mice per group. * indicates statistical difference at p<0.05 vs. vs. respective saline-treated mice
Simultaneously, mice were intraperitoneally injected or not with PBS (as vehicle) or NRH (250 mg/kg). Urine was collected 24 h later to evaluate urea levels by NMR. All results are expressed as mean +/−SEM of n=5 mice per group. * indicates statistical difference at p<0.05 vs. vs. respective saline-treated mice.
Simultaneously, mice were intraperitoneally injected or not with PBS (as vehicle) or NRH (250 mg/kg). PBS or NRH were then injected at 24, 48 and 72 h after the initiation of the experiment. Mice were sacrificed 4 h after the last injection, and kidneys were fixed in OCT and used for immunohistochemistry against cleaved caspase 3. The cleaved caspase 3 staining was then quantified against the total area, using 10 images per mouse, 5 mice per group. All results are expressed as mean +/−SEM. * indicates statistical difference at p<0.05 vs. vs. respective saline-treated mice.
Simultaneously, mice were intraperitoneally injected or not with PBS (as vehicle) or NRH (250 mg/kg). PBS or NRH were then injected at 24, 48 and 72 h after the initiation of the experiment. 4 h after the last injection, and kidneys were obtained to isolate mRNA and analyze by qPCR makers of renal dysfunction (TGF-b1), glomerular dysfunction (fibronectin), apoptosis (BAX) and ER stress (BIP). All values are expressed as mean +/−SEM of n=4 mice per group. * indicates statistical difference at p<0.05 vs. respective vehicle-injected mice. # indicates statistical difference at p<0.05 vs. the respective mice in the control group.
Kidneys were harvested 4 hrs after the last NRH injection.

Where [3] appears, read: cisplatin 20 mg/kg, NRH 250 mg/kg.
[4] abbreviates: kidney qPCR, cisplatin plus NRH.

Regarding `NC(=O)C1=CN([C@@H]2O[C@H](CO)[C@@H](O)[C@H]2O)C=CC1` [NRH, dihydro-1-beta-D-ribofuranosyl-3-pyridinecarboxamide], in experiment [1], the “NAD+ levels in kidney” value is on record as “increased NAD+ levels”, the “NAD+ levels in liver” value is given as “increased NAD+ levels” and the “NAD+ levels in muscle” value is “increased NAD+ levels”. The “NAD+ levels in kidney above control” value in experiment [2] (4 h after NRH supplementation) is on record as “did not observe higher NAD^+ levels”. Also, in experiment [2] (cisplatin 20 mg/kg IP, NRH 250 mg/kg IP at 0, 24, 48, 72 h, kidneys 4 h after last injection), the “renal NADH levels” value was “prevented the drop in renal NAD^+ and NADH levels”. In addition, in experiment [2] (setting [3]), the “Me2PY and Me4PY levels in urine” value was “further increased”; the “methyl-NAM levels in kidney” value was “further increased methyl-NAM levels in kidney”. Also, in experiment [2] (cisplatin mice treated with NRH), the PARP activity result is “higher”. Further, in experiment [2] (histology, cisplatin 20 mg/kg, NRH 250 mg/kg), the “kidney structure (tubular necrosis, glomeruli dilatation, inflammation, cast formation)” value is given as “largely prevented”. Further, the “presence of kidney casts” value in experiment [2] (histology, cisplatin plus NRH) was “major decrease in the presence of kidney casts”. Further, the “renal cell apoptosis (cleaved caspase 3 staining)” value in experiment [2] (kidney immunohistochemistry, cisplatin plus NRH (FIG. 9)) is reported as “protects against cisplatin-induced renal cell apoptosis”. In experiment [2] (setting [4]), the “BAX mRNA (marker of apoptosis)” value is listed as “prevented cisplatin-induced increases”, the “BIP mRNA (marker of ER stress)” value is given as “prevented cisplatin-induced increases”, the TGF-β1 expression entry is given as “prevent the increase in TGF-β1 expression” and the “fibronectin mRNA (marker of glomerular dysfunction)” value is “prevented cisplatin-induced increases”.
